Laboratory results from ChEMBL document CHEMBL2331210, “New 2-benzylsulfanyl-nicotinic acid based 1,3,4-oxadiazoles: their synthesis and biological evaluation” (2013).
Converted amounts (≈) assume the structure as drawn.

Legend:
[1] = Antitumor activity against human HCC2998 cells assessed as cell growth at 0.1 uM; format: functional; details: HCC 2998, read-out: Activity
MDA-MB-468 = assay: Antitumor activity against human MDA-MB-468 cells assessed as cell growth at 0.1 uM; format: functional; details: read-out: Activity
DU-145 = assay: Antitumor activity against human DU145 cells assessed as cell growth at 0.1 uM; format: functional; details: read-out: Activity
Aspergillus niger = assay: Antimicrobial activity against Aspergillus niger MTCC 282 assessed as growth inhibition measured after overnight incubation by broth dilution method; format: functional
RPMI-8226 = assay: Antitumor activity against human RPMI8226 cells assessed as cell growth at 0.1 uM; format: functional; details: read-out: Activity
HT-29 = assay: Antitumor activity against human HT-29 cells assessed as cell growth at 0.1 uM; format: functional; details: read-out: Activity
NCI-H226 = assay: Antitumor activity against human NCI-H226 cells assessed as cell growth at 0.1 uM; format: functional; details: read-out: Activity
[2] = system: Mycobacterium tuberculosis; assay: Antitubercular activity against Mycobacterium tuberculosis H37Rv assessed as growth inhibition after 12 to 28 days by L.J. agar MIC method; format: functional; details: for MIC: Mycobacterium tuberculosis, H37Rv
LOX IMVI = assay: Antitumor activity against human LOXIMVI cells assessed as cell growth at 0.1 uM; format: functional; details: read-out: Activity
ACHN = assay: Antitumor activity against human ACHN cells assessed as cell growth at 0.1 uM; format: functional; details: read-out: Activity
UO-31 = assay: Antitumor activity against human UO31 cells assessed as cell growth at 0.1 uM; format: functional; details: read-out: Activity
SW-620 = assay: Antitumor activity against human SW620 cells assessed as cell growth at 0.1 uM; format: functional; details: read-out: Activity
Candida albicans = assay: Antimicrobial activity against Candida albicans MTCC 227 assessed as growth inhibition measured after overnight incubation by broth dilution method; format: functional
TK-10 = assay: Antitumor activity against human TK10 cells assessed as cell growth at 0.1 uM; format: functional; details: read-out: Activity
M14 = assay: Antitumor activity against human M14 cells assessed as cell growth at 0.1 uM; format: functional; details: read-out: Activity
[3] = Antitumor activity against human Hs 578T cells assessed as cell growth at 0.1 uM; format: functional; details: read-out: Activity
U-251 = assay: Antitumor activity against human U251 cells assessed as cell growth at 0.1 uM; format: functional; details: read-out: Activity
OVCAR-4 = assay: Antitumor activity against human OVCAR4 cells assessed as cell growth at 0.1 uM; format: functional; details: read-out: Activity
OVCAR-5 = assay: Antitumor activity against human OVCAR5 cells assessed as cell growth at 0.1 uM; format: functional; details: read-out: Activity
PC-3 = assay: Antitumor activity against human PC3 cells assessed as cell growth at 0.1 uM; format: functional; details: read-out: Activity
SN12C = assay: Antitumor activity against human SN12C cells assessed as cell growth at 0.1 uM; format: functional; details: read-out: Activity
RXF 393 = assay: Antitumor activity against human RXF393 cells assessed as cell growth at 0.1 uM; format: functional; details: read-out: Activity
Streptococcus pyogenes = assay: Antimicrobial activity against Streptococcus pyogenes MTCC 442 assessed as growth inhibition measured after overnight incubation by broth dilution method; format: functional
A549 = assay: Antitumor activity against human A549/ATCC cells assessed as cell growth at 0.1 uM; format: functional; details: read-out: Activity
A498 = assay: Antitumor activity against human A498 cells assessed as cell growth at 0.1 uM; format: functional; details: read-out: Activity
UACC-257 = assay: Antitumor activity against human UACC257 cells assessed as cell growth at 0.1 uM; format: functional; details: read-out: Activity
T47D = assay: Antitumor activity against human T47D cells assessed as cell growth at 0.1 uM; format: functional; details: read-out: Activity
BT-549 = assay: Antitumor activity against human BT549 cells assessed as cell growth at 0.1 uM; format: functional; details: read-out: Activity
IGROV-1 = assay: Antitumor activity against human IGROV1 cells assessed as cell growth at 0.1 uM; format: functional; details: read-out: Activity
SR = assay: Antitumor activity against human SR cells assessed as cell growth at 0.1 uM; format: functional; details: read-out: Activity
Aspergillus clavatus = assay: Antimicrobial activity against Aspergillus clavatus MTCC 1323 assessed as growth inhibition measured after overnight incubation by broth dilution method; format: functional
SK-MEL-5 = assay: Antitumor activity against human SK-MEL-5 cells assessed as cell growth at 0.1 uM; format: functional; details: read-out: Activity
HCT-116 = assay: Antitumor activity against human HCT116 cells assessed as cell growth at 0.1 uM; format: functional; details: read-out: Activity
HOP-62 = assay: Antitumor activity against human HOP62 cells assessed as cell growth at 0.1 uM; format: functional; details: read-out: Activity
MDA-MB-231 = assay: Antitumor activity against human MDA-MB-231/ATCC cells assessed as cell growth at 0.1 uM; format: functional; details: read-out: Activity
SF-539 = assay: Antitumor activity against human SF539 cells assessed as cell growth at 0.1 uM; format: functional; details: read-out: Activity
SF-295 = assay: Antitumor activity against human SF295 cells assessed as cell growth at 0.1 uM; format: functional; details: read-out: Activity
OVCAR-8 = assay: Antitumor activity against human OVCAR8 cells assessed as cell growth at 0.1 uM; format: functional; details: read-out: Activity
SK-MEL-28 = assay: Antitumor activity against human SK-MEL-28 cells assessed as cell growth at 0.1 uM; format: functional; details: read-out: Activity
UACC-62 = assay: Antitumor activity against human UACC62 cells assessed as cell growth at 0.1 uM; format: functional; details: read-out: Activity
Malme-3M = assay: Antitumor activity against human MALME-3M cells assessed as cell growth at 0.1 uM; format: functional; details: read-out: Activity
NCI-H522 = assay: Antitumor activity against human NCI-H522 cells assessed as cell growth at 0.1 uM; format: functional; details: read-out: Activity
Staphylococcus aureus = assay: Antimicrobial activity against Staphylococcus aureus MTCC 96 assessed as growth inhibition measured after overnight incubation by broth dilution method; format: functional
NCI-H23 = assay: Antitumor activity against human NCI-H23 cells assessed as cell growth at 0.1 uM; format: functional; details: read-out: Activity
NCI/ADR-RES = assay: Antitumor activity against human NCI/ADR-RES cells assessed as cell growth at 0.1 uM; format: functional; details: read-out: Activity
SF-268 = assay: Antitumor activity against human SF268 cells assessed as cell growth at 0.1 uM; format: functional; details: read-out: Activity
CAKI-1 = assay: Antitumor activity against human CAKI-1 cells assessed as cell growth at 0.1 uM; format: functional; details: read-out: Activity
MCF7 = assay: Antitumor activity against human MCF7 cells assessed as cell growth at 0.1 uM; format: functional; details: read-out: Activity
HL-60 = assay: Antitumor activity against human HL60(TB) cells assessed as cell growth at 0.1 uM; format: functional; details: read-out: Activity
[4] = Antitumor activity against human EKVX cells assessed as cell growth at 0.1 uM; format: functional; details: read-out: Activity
OVCAR-3 = assay: Antitumor activity against human OVCAR3 cells assessed as cell growth at 0.1 uM; format: functional; details: read-out: Activity
Pseudomonas aeruginosa = assay: Antimicrobial activity against Pseudomonas aeruginosa MTCC 2488 assessed as growth inhibition measured after overnight incubation by broth dilution method; format: functional
CCRF-CEM = assay: Antitumor activity against human CCRF-CEM cells assessed as cell growth at 0.1 uM; format: functional; details: read-out: Activity
SK-OV-3 = assay: Antitumor activity against human SKOV3 cells assessed as cell growth at 0.1 uM; format: functional; details: read-out: Activity
SNB-75 = assay: Antitumor activity against human SNB75 cells assessed as cell growth at 0.1 uM; format: functional; details: read-out: Activity
SK-MEL-2 = assay: cells; details: Homo sapiens, SK-MEL-2, read-out: Activity
Description: Antitumor activity against human SK-MEL-2 cells assessed as cell growth at 0.1 uM

SNB-19 = assay: Antitumor activity against human SNB19 cells assessed as cell growth at 0.1 uM; format: functional; details: read-out: Activity
MDA-MB-435 = assay: Antitumor activity against human MDA-MB-435 cells assessed as cell growth at 0.1 uM; format: functional; details: read-out: Activity
NCI-H460 = assay: Antitumor activity against human NCI-H460 cells assessed as cell growth at 0.1 uM; format: functional; details: read-out: Activity
MOLT-4 = assay: Antitumor activity against human MOLT4 cells assessed as cell growth at 0.1 uM; format: functional; details: read-out: Activity
K562 = assay: Antitumor activity against human K562 cells assessed as cell growth at 0.1 uM; format: functional; details: read-out: Activity
Escherichia coli = assay: Antimicrobial activity against Escherichia coli MTCC 443 assessed as growth inhibition measured after overnight incubation by broth dilution method; format: functional
HCT-15 = assay: Antitumor activity against human HCT15 cells assessed as cell growth at 0.1 uM; format: functional; details: read-out: Activity

Structure (SMILES): COc1cc(OC)nc(NC(=O)CSc2nnc(-c3cccnc3SCc3ccccc3)o2)n1
- growth at 0.1 µM [1]: 109%
- growth at 0.1 µM (MDA-MB-468): 98.2%
- growth at 0.1 µM (DU-145): 108%
- MIC (Aspergillus niger): 500 µg/mL (≈ 1010 µM)
- growth at 0.1 µM (RPMI-8226): 101%
- growth at 0.1 µM (HT-29): 100%
- growth at 0.1 µM (NCI-H226): 101%
- growth inhibition (GI) [2]: 99%
- MIC [2]: 250 µg/mL (≈ 503 µM)
- growth at 0.1 µM (LOX IMVI): 97.6%
- growth at 0.1 µM (ACHN): 107%
- growth at 0.1 µM (UO-31): 80.6%
- growth at 0.1 µM (SW-620): 107%
- MIC (Candida albicans): 500 µg/mL (≈ 1010 µM)
- growth at 0.1 µM (TK-10): 98.6%
- growth at 0.1 µM (M14): 96.7%
- growth at 0.1 µM [3]: 107%
- growth at 0.1 µM (U-251): 106%
- growth at 0.1 µM (OVCAR-4): 100%
- growth at 0.1 µM (OVCAR-5): 101%
- growth at 0.1 µM (PC-3): 104%
- growth at 0.1 µM (SN12C): 106%
- growth at 0.1 µM (RXF 393): 107%
- MIC (Streptococcus pyogenes): 125 µg/mL (≈ 252 µM)
- growth at 0.1 µM (A549): 96.5%
- growth at 0.1 µM (A498): 125%
- growth at 0.1 µM (UACC-257): 105%
- growth at 0.1 µM (T47D): 89.9%
- growth at 0.1 µM (BT-549): 99.6%
- growth at 0.1 µM (IGROV-1): 114%
- growth at 0.1 µM (SR): 96.2%
- MIC (Aspergillus clavatus): 500 µg/mL (≈ 1010 µM)
- growth at 0.1 µM (SK-MEL-5): 105%
- growth at 0.1 µM (HCT-116): 101%
- growth at 0.1 µM (HOP-62): 99.7%
- growth at 0.1 µM (MDA-MB-231): 108%
- growth at 0.1 µM (SF-539): 94.5%
- growth at 0.1 µM (SF-295): 97.1%
- growth at 0.1 µM (OVCAR-8): 105%
- growth at 0.1 µM (SK-MEL-28): 114%
- growth at 0.1 µM (UACC-62): 107%
- growth at 0.1 µM (Malme-3M): 98.2%
- growth at 0.1 µM (NCI-H522): 88.2%
- MIC (Staphylococcus aureus): 250 µg/mL (≈ 503 µM)
- growth at 0.1 µM (NCI-H23): 103%
- growth at 0.1 µM (NCI/ADR-RES): 102%
- growth at 0.1 µM (SF-268): 104%
- growth at 0.1 µM (CAKI-1): 99.5%
- growth at 0.1 µM (MCF7): 95.5%
- growth at 0.1 µM (HL-60): 97.3%
- growth at 0.1 µM [4]: 105%
- growth at 0.1 µM (OVCAR-3): 102%
- MIC (Pseudomonas aeruginosa): 250 µg/mL (≈ 503 µM)
- growth at 0.1 µM (CCRF-CEM): 108%
- growth at 0.1 µM (SK-OV-3): 103%
- growth at 0.1 µM (SNB-75): 92.5%
- growth at 0.1 µM (SK-MEL-2): 102%
- growth at 0.1 µM (SNB-19): 107%
- growth at 0.1 µM (MDA-MB-435): 105%
- growth at 0.1 µM (NCI-H460): 112%
- growth at 0.1 µM (MOLT-4): 93.2%
- growth at 0.1 µM (K562): 98.2%
- MIC (Escherichia coli): 100 µg/mL (≈ 201 µM)
- growth at 0.1 µM (HCT-15): 105%

Structure (SMILES): COc1cc(OC)nc(NC(=O)CCl)n1
- MIC (Aspergillus niger): 1000 µg/mL (≈ 4320 µM)
- growth inhibition (GI) [2]: 98%
- MIC [2]: 250 µg/mL (≈ 1080 µM)
- MIC (Candida albicans): 500 µg/mL (≈ 2160 µM)
- MIC (Streptococcus pyogenes): 125 µg/mL (≈ 540 µM)
- MIC (Aspergillus clavatus): > 1000 µg/mL
- MIC (Staphylococcus aureus): 500 µg/mL (≈ 2160 µM)
- MIC (Pseudomonas aeruginosa): 125 µg/mL (≈ 540 µM)
- MIC (Escherichia coli): 100 µg/mL (≈ 432 µM)

Structure (SMILES): O=C(CCl)Nn1cnnc1
- MIC (Aspergillus niger): > 1000 µg/mL
- growth inhibition (GI) [2]: 90%
- MIC [2]: 1000 µg/mL (≈ 6230 µM)
- MIC (Candida albicans): 1000 µg/mL (≈ 6230 µM)
- MIC (Streptococcus pyogenes): 250 µg/mL (≈ 1560 µM)
- MIC (Aspergillus clavatus): > 1000 µg/mL
- MIC (Staphylococcus aureus): 500 µg/mL (≈ 3110 µM)
- MIC (Pseudomonas aeruginosa): 250 µg/mL (≈ 1560 µM)
- MIC (Escherichia coli): 250 µg/mL (≈ 1560 µM)

Structure (SMILES): COC1=CC(=O)C[C@@H](C)[C@]12Oc1c(Cl)c(OC)cc(OC)c1C2=O [GRISEOFULVIN]
- MIC (Aspergillus niger): 100 µg/mL (≈ 283 µM)
- MIC (Candida albicans): 500 µg/mL (≈ 1420 µM)
- MIC (Aspergillus clavatus): 100 µg/mL (≈ 283 µM)
